# Residue numbers refer to the chain shown, from its start.
# Tests used:
# Experiment in all cases: intrinsic tryptophan fluorescence quenching
# Format in all cases: binding
# Conditions in all cases: 20 mM sodium acetate pH 5.0, 25 °C, 1 µM OBP; Q = ligand concentration at which 3% of OBP is bound
# Dmel\OBP57e = biological target: T1, Dmel\OBP57e (Drosophila melanogaster, UniProt Q9V938)
# T1 construct: mature protein, signal peptide removed, untagged; cloning primer encodes NTSVFNP
# T1 sequence (Q9V938 21-136): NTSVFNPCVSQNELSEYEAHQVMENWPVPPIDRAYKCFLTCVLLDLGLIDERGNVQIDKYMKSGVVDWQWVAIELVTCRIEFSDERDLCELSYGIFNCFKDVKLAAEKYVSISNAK
# Dmel\OBP57d [1] = biological target: T2, Dmel\OBP57d (Drosophila melanogaster, UniProt Q8MMF9, C33A)
# T2 construct: mature protein, signal peptide removed, untagged, Met added; primer encodes N-terminus NDPCPHNQGID, C-terminus LTKS
# T2 sequence (Q8MMF9 30-136 C33A): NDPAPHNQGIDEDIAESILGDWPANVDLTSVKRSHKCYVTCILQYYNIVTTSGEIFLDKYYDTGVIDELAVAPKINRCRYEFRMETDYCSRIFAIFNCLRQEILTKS
# Dmel\OBP57d [2] = biological target: T3, Dmel\OBP57d (Drosophila melanogaster, UniProt Q8MMF9)
# T3 construct: mature protein, signal peptide removed, untagged, Met added; primer encodes N-terminus NDPCPHNQGID, C-terminus LTKS
# T3 sequence (Q8MMF9 30-136): T2 sequence (Q8MMF9 30-136 C33A) with A4C
# Dmel\OBP57d [3] = biological target: T4, Dmel\OBP57d (Drosophila melanogaster, UniProt Q8MMF9, D96A)
# T4 construct: mature protein, signal peptide removed, untagged, Met added; primer encodes N-terminus NDPCPHNQGID, C-terminus LTKS
# T4 sequence (Q8MMF9 30-136 D96A): T2 sequence (Q8MMF9 30-136 C33A) with A4C, D67A
# Dmel\OBP57d [4] = biological target: T5, Dmel\OBP57d (Drosophila melanogaster, UniProt Q8MMF9, DEL101-101)
# T5 construct: mature protein, signal peptide removed, untagged, Met added; primer encodes N-terminus NDPCPHNQGID, C-terminus LTKS
# T5 sequence (Q8MMF9 with tags, fused parts or gaps DEL101-101): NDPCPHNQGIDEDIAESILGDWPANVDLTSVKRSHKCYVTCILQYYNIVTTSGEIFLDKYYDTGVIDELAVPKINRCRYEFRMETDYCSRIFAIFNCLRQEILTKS
# Dmel\OBP57d [5] = biological target: T6, Dmel\OBP57d (Drosophila melanogaster, UniProt Q8MMF9, P52A)
# T6 construct: mature protein, signal peptide removed, untagged, Met added; primer encodes N-terminus NDPCPHNQGID, C-terminus LTKS
# T6 sequence (Q8MMF9 30-136 P52A): T2 sequence (Q8MMF9 30-136 C33A) with A4C, P23A
# Dmel\OBP57d [6] = biological target: T7, Dmel\OBP57d (Drosophila melanogaster, UniProt Q8MMF9, Y89A)
# T7 construct: mature protein, signal peptide removed, untagged, Met added; primer encodes N-terminus NDPCPHNQGID, C-terminus LTKS
# T7 sequence (Q8MMF9 30-136 Y89A): T2 sequence (Q8MMF9 30-136 C33A) with A4C, Y60A
# Dmel\OBP57d [7] = biological target: T8, Dmel\OBP57d (Drosophila melanogaster, UniProt Q8MMF9, L133A)
# T8 construct: mature protein, signal peptide removed, untagged, Met added; primer encodes N-terminus NDPCPHNQGID, C-terminus LTKS
# T8 sequence (Q8MMF9 30-136 L133A): T2 sequence (Q8MMF9 30-136 C33A) with A4C, L104A
# Dpse\OBP57de = biological target: T9, Dpse\OBP57de (Drosophila pseudoobscura, UniProt A0A6I8UUP3)
# T9 construct: gene LOC4804642; mature protein, signal peptide removed, untagged, Met added; primer encodes N-terminus HSNTAIFN
# T9 sequence (A0A6I8UUP3 20-133): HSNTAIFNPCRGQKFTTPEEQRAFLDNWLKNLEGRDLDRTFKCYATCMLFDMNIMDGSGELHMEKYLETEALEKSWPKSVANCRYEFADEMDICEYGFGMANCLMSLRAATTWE
structure (smiles),measurement,setting,value
"CCCCCCCCCCC(=O)O [C11, C11 fatty acid]",Q (quenching value),Dmel\OBP57e,particularly obvious in the affinity to C10–C13 fatty acids and 1-tridecanol
"CCCCCCCCCCCCC(=O)O [C13, tridecanoic acid]",Q (quenching value),Dmel\OBP57d [1],none showed a complete loss of interaction with ligands
same,Q (quenching value),Dmel\OBP57d [2],the strongest interaction was observed with the longer chain fatty acid (tridecanoic acid: C13)
same,Q (quenching value),Dmel\OBP57d [3],none showed a complete loss of interaction with ligands
same,Q (quenching value),Dmel\OBP57d [4],none showed a complete loss of interaction with ligands
same,Q (quenching value),Dmel\OBP57d [5],none showed a complete loss of interaction with ligands
same,Q (quenching value),Dmel\OBP57e,"Dmel\OBP57e also showed higher affinity than Dpse\OBP57de, not only to tridecanoic acid"
same,Q (quenching value),Dmel\OBP57d [6],none showed a complete loss of interaction with ligands
same,Q (quenching value),Dmel\OBP57d [7],none showed a complete loss of interaction with ligands
"CCCCCCCCCCCC(=O)O [C12, C12 fatty acid]",Q (quenching value),Dmel\OBP57e,particularly obvious in the affinity to C10–C13 fatty acids and 1-tridecanol
same,Q (quenching value),Dpse\OBP57de,The binding affinity of Dmel\OBP57e and Dpse\OBP57de to the same set of compounds was examined
"CCCCCCCCCC(=O)O [C10, decanoic acid]",Q (quenching value),Dmel\OBP57e,particularly obvious in the affinity to C10–C13 fatty acids and 1-tridecanol

# Source: article PMC3253112, “Functional Evolution of Duplicated Odorant-Binding Protein Genes, Obp57d and Obp57e, in Drosophila” (PLoS ONE, 2012)
